For one cell line, relative viability results are on record in the supplement of paper PMC10307832.

Holding throughout (experiment): relative viability (nuclei count vs DMSO), 5 days (fraction); higher = more cells survive
Compound in test [1]: Cc1cc([C@@H](C)Nc2ccccc2C(=O)O)c2nc(N3CCOCC3)cc(=O)n2c1 [AZD6482] + CCNC(=O)c1noc(-c2cc(C(C)C)c(O)cc2O)c1-c1ccc(CN2CCOCC2)cc1 [Luminespib] (partner 0.01 µM)
An outline of the steps: (§1)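 Each reported value is a median over duplicate plates. It expresses relative viability: treated-well nuclei count divided by vehicle-well nuclei count. Lung cancer cell lines in 1536-well plates were dosed by pin tool a day after seeding, alone with one drug or with a fixed anchor-drug dose plus five library-drug doses (not always all listed) in √10 steps, and nuclei were counted after 5 days.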

Compound in test [2]: Cc1cc([C@@H](C)Nc2ccccc2C(=O)O)c2nc(N3CCOCC3)cc(=O)n2c1 [AZD6482] + CC(C)C[C@H](NC(=O)[C@H](Cc1ccccc1)NC(=O)c1cnccn1)B(O)O [Bortezomib] (partner 0.002 µM)
Put shortly: as §1

Compound in test [3]: Cc1cc([C@@H](C)Nc2ccccc2C(=O)O)c2nc(N3CCOCC3)cc(=O)n2c1 [AZD6482] + Nc1nc2[nH]cc(CCc3ccc(C(=O)N[C@@H](CCC(=O)O)C(=O)O)cc3)c2c(=O)[nH]1 [Pemetrexed] (partner 0.2 µM)
An outline of the steps:
as §1

Compound in test [4]: COc1cc2nc(N3CCCN(C)CC3)nc(NC3CCN(Cc4ccccc4)CC3)c2cc1OC + CC(=O)Nc1cccc(-n2c(=O)n(C3CC3)c(=O)c3c(Nc4ccc(I)cc4F)n(C)c(=O)c(C)c32)c1 [Trametinib] (partner 0.02 µM)
Put shortly:
as §1

With UMC-11, the relative viability turned out to be 0.986 in test [1] (first compound 0.08 µM); 0.994 in test [1] (first compound 0.253 µM); 0.929 in test [1] (first compound 0.8 µM); 0.869 in test [1] (first compound 2.53 µM); 1.26 in test [1] (first compound 8 µM); 0.836 in test [2] (first compound 0.08 µM). Further, the relative viability was found to be 0.628 in test [2] (first compound 0.253 µM); 0.862 in test [2] (first compound 0.8 µM); 0.627 in test [2] (first compound 2.53 µM); 0.75 in test [2] (first compound 8 µM); 0.752 in test [3] (first compound 0.08 µM); 0.822 in test [3] (first compound 0.253 µM). Besides, the relative viability was 0.811 in test [3] (first compound 0.8 µM); 0.633 in test [3] (first compound 2.53 µM); 0.738 in test [3] (first compound 8 µM); 0.741 in test [4] (first compound 0.2 µM); 0.729 in test [4] (first compound 0.6325 µM); 0.836 in test [4] (first compound 2 µM). For the same cell line, the relative viability in test [4] (first compound 6.325 µM) was determined as 0.517.
